Patent publication US10988477B2 (Merck Patent GmbH, priority 2018, dated 2021)
Where two headings read alike, the source gives them in different places.

What was measured:
GCN2 kinase = GCN2 kinase (Homo sapiens, UniProt Q9P2K8); experiment: GCN2 enzyme inhibition assay (Transcreener ADP2 fluorescence polarization); type: biochemical; settings: 280 μM ATP
Procedure, shortened: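 Run at 25 °C in 25 mM Tris-HCl pH 7.5, 50 mM NaCl, 10 mM MgCl2, 1 mM DTT with 4 nM GCN2, 280 μM ATP and 200 μM (RS)7 peptide; compound (0–8 μM final) preincubated 10 min, reaction 1 h. ADP read by antibody/tracer FP; IC50 and Ki(app) from tight-binding fit.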

[1] = target: intracellular GCN2 (phosphorylation of the GCN2 substrate eIF2α) (Homo sapiens, UniProt Q9P2K8); experiment: GCN2 cellular inhibition assay (AlphaScreen SureFire P-eIF2α Ser51, borrelidin-treated U2OS cells); type: cell-based
Procedure, shortened: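 Borrelidin at 10 μM is added to U2OS cells immediately after compound (4-fold dilution series, 40 μM top final) for 1 h at 37 °C. Phosphorylated eIF2α Ser51 in lysates is quantified by AlphaScreen and expressed as percent inhibition against borrelidin-stimulated controls.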

[2] = compounds of Formula II, 4 nM GCN2 kinase
[3] = compounds of Formula II, biomarker assay, phosphorylated eIF2α Ser51 in borrelidin-treated U2OS cells
[4] = Enzyme activity for compounds of Formula IV, Ki(app), 25° C.
[5] = compounds of Formula IV, biomarker assay, phosphorylated eIF2α Ser51 in borrelidin-treated U2OS cells

intracellular GCN2 (phosphorylation of the GCN2 substrate eIF2α), sequence (Q9P2K8 whole entry): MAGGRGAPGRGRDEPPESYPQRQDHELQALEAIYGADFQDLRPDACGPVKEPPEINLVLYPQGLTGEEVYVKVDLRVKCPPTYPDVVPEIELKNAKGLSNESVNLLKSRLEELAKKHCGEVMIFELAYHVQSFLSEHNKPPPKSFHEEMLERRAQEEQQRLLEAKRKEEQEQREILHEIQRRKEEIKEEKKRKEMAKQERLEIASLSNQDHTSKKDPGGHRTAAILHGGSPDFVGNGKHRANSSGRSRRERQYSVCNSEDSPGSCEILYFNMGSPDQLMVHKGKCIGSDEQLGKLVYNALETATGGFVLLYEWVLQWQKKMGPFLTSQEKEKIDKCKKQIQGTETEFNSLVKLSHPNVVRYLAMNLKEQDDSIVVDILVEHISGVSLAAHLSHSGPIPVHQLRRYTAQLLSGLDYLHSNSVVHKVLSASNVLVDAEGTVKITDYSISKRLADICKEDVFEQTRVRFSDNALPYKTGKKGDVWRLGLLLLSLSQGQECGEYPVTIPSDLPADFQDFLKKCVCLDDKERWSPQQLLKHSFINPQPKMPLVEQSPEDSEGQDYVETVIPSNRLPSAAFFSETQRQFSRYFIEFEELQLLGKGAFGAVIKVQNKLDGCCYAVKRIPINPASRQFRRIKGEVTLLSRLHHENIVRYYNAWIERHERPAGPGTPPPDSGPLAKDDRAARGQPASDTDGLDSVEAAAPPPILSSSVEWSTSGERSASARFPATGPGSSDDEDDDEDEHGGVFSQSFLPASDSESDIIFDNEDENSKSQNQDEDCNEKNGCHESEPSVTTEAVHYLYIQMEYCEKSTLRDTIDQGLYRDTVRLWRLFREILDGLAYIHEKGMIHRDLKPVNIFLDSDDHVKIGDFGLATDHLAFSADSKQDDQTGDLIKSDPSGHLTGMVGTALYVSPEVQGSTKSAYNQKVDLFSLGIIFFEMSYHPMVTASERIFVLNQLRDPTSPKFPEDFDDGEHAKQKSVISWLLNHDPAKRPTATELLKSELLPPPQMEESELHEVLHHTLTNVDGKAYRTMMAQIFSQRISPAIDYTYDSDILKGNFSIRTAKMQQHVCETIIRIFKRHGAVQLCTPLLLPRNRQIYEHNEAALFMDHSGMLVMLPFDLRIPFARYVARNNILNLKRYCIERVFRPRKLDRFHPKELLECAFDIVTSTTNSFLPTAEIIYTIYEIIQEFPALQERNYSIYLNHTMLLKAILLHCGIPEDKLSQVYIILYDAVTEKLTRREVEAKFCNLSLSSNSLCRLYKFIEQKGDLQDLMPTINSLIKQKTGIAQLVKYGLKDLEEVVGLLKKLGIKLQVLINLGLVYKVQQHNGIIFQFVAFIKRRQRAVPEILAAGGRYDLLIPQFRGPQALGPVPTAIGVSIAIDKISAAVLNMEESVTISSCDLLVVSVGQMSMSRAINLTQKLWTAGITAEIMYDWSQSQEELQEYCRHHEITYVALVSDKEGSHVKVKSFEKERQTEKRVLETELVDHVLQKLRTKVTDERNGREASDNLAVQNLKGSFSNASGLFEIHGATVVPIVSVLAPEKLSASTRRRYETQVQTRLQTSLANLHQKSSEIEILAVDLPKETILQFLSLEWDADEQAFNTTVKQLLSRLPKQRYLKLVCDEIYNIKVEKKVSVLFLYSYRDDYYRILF
GCN2 kinase, sequence (Q9P2K8 whole entry): as above

Structure (SMILES) | Ki (GCN2 kinase; [2]) [µM] | IC50 [1, 3] [µM] | Ki (GCN2 kinase; [4]) [µM] | IC50 [1, 5] [µM] | further results
CC(NS(C)(=O)=O)C1CN(c2cc(-c3cnc4ccc(C(F)F)nn34)ncn2)CCO1 (stereo not shown) [II-159, N-(1-(4-(6-(6-(Difluoromethyl)imidazo[1,2-b]pyridazin-3-yl)pyrimidin-4-yl)morpholin-2-yl)ethyl)methanesulfonamide] | 0.01 to 1 | 0.5 to 5 | – | – | –
NC1CCCN(c2ccnc(-c3cnc4cnc(C(F)F)cn34)n2)CC1 (stereo not shown) [IV-118, 1-(2-(6-(Difluoromethyl)imidazo[1,2-a]pyrazin-3-yl)pyrimidin-4-yl)azepan-4-amine] | – | – | 0.1 to 1 | > 5 | –
O=S(=O)(CC1CC1)N[C@H]1CCCN(c2cc(-c3cnc4ccc(C(F)F)nn34)ncn2)C1 [II-420, (S)-1-Cyclopropyl-N-(1-(6-(6-(difluoromethyl)imidazo[1,2-b]pyridazin-3-yl)pyrimidin-4-yl)piperidin-3-yl)methanesulfonamide] | 0.01 to 1 | 0.5 to 5 | – | – | –
CN1CCN(c2ccnc(-c3cnc4cnc(C(F)F)cn34)n2)CC1C(N)=O (stereo not shown) [IV-89, 4-(2-(6-(Difluoromethyl)imidazo[1,2-a]pyrazin-3-yl)pyrimidin-4-yl)-1-methylpiperazine-2-carboxamide] | – | – | 0.1 to 1 | > 5 | –
CS(=O)(=O)N1CCN2CCN(c3cc(-c4cnc5ccc(C(F)F)nn45)ccn3)CC2C1 (stereo not shown) [II-37, 2-(4-(6-(Difluoromethyl)imidazo[1,2-b]pyridazin-3-yl)pyridin-2-yl)-8-(methylsulfonyl)octahydro-1H-pyrazino[1,2-a]pyrazine] | 0.01 to 1 | 0.5 to 5 | – | – | –
NC(=O)c1cc(C2CCCN(c3cc(-c4cnc5ccc(C(F)F)nn45)ncn3)C2)n[nH]1 (stereo not shown) [II-205, 3-(1-(6-(6-(Difluoromethyl)imidazo[12-b]pyridazin-3-yl)pyrimidin-4-yl)piperidin-3-yl)-1H-pyrazole-5-carboxamide] | 0.01 to 1 | 0.5 to 5 | – | – | –
FC(F)(F)c1ccc2ncc(-c3ccnc(N4CCOC(c5cn[nH]c5)C4)c3)n2n1 (single isomer, unassigned) [II-229, 2-(1H-Pyrazol-4-yl)-4-(4-(6-(trifluoromethyl)imidazo[1,2-b]pyridazin-3-yl)pyridin-2-yl)morpholine] | < 0.01 | < 0.5 | – | – | –
CC1CN(c2cc(-c3cnc4ccc(C#N)nn34)ncn2)C(C)C(c2cn[nH]c2)N1 (stereo not shown) [II-693] | 0.01 to 1 | 0.5 to 5 | – | – | –
CS(=O)(=O)NCC1CCCN(c2cc(-c3cnn4ccc(C(F)F)nc34)ncn2)C1 (stereo not shown) [III-2, N-[[1-[6-[5-(Difluoromethyl)pyrazolo[1,5-a]pyrimidin-3-yl]pyrimidin-4-yl]-3-piperidyl]methyl]methanesulfonamide] | – | – | – | – | Ki (GCN2 kinase; compounds of Formula III, 4 nM GCN2 kinase): < 0.01 µM; IC50 ([1]; compounds of Formula III, U2OS cells, 10 μM borrelidin, 1 h, read-out: GCN2 Biomarker (IC50)): < 0.5 µM
O=C(NCCO)C1CCCN(c2cc(-c3cnc4ccc(C(F)F)nn34)ncn2)C1 (stereo not shown) [II-191, 1-(6-(6-(Difluoromethyl)imidazo[1,2-b]pyridazin-3-yl)pyrimidin-4-yl)-N-(2-hydroxyethyl)piperidine-3-carboxamide] | 0.01 to 1 | > 5 | – | – | –
NC(=O)c1cn2c(-c3cccc(N4CCN5C(=O)CCC[C@H]5C4)n3)cnc2cn1 [IV-228, (S)-3-(6-(6-Oxooctahydro-2H-pyrido[1,2-a]pyrazin-2-yl)pyridin-2-yl)imidazo[1,2-a]pyrazine-6-carboxamide] | – | – | 0.01 to 0.1 | 0.5 to 5 | –
CS(=O)(=O)N1CCC2(CCCCN2c2cc(-c3cnc4ccc(C(F)F)nn34)ncn2)C1 (stereo not shown) [II-256, 6-(6-(6-(Difluoromethyl)imidazo[1,2-b]pyridazin-3-yl)pyrimidin-4-yl)-2-(methylsulfonyl)-2,6-diazaspiro[4.5]decane] | 0.01 to 1 | > 5 | – | – | –
COC1CC(CNS(C)(=O)=O)CN(c2cc(-c3cnc4ccc(C(F)F)nn34)ncn2)C1 (single isomer, unassigned) [II-233, N-((1-(6-(6-(Difluoromethyl)imidazo[1,2-b]pyridazin-3-yl)pyrimidin-4-yl)-5-methoxypiperidin-3-yl)methyl)methanesulfonamide] | < 0.01 | < 0.5 | – | – | –
C[C@H]1CO[C@@H](CNS(C)(=O)=O)CN1c1cc(-c2cnc3ccc(C(F)F)nn23)ncn1 [II-234, N-(((2R,5S)-4-(6-(6-(difluoromethyl)imidazo[1,2-b]pyridazin-3-yl)pyrimidin-4-yl)-5-methylmorpholin-2-yl)methyl)methanesulfonamide] | 0.01 to 1 | 0.5 to 5 | – | – | –
CC(=O)N1CCN(c2ccnc(-c3cnc4cnc(C(F)F)cn34)n2)CC1 [IV-22, 1-(4-(2-(6-(Difluoromethyl)imidazo[1,2-a]pyrazin-3-yl)pyrimidin-4-yl)piperazin-1-yl)ethan-1-one] | – | – | 0.1 to 1 | > 5 | –
CC1CN(c2ccnc(-c3cnc4cnc(Cl)cn34)n2)CC(c2cn[nH]c2)O1 (stereo not shown) [IV-193, 4-(2-(6-Chloroimidazo[1,2-a]pyrazin-3-yl)pyrimidin-4-yl)-2-methyl-6-(1H-pyrazol-4-yl)morpholine] | – | – | < 0.01 | < 0.5 | –
O=C1CCC2CN(c3ccnc(-c4cnc5cnc(C(F)F)cn45)n3)CCN12 (stereo not shown) [IV-98, 2-(2-(6-(Difluoromethyl)imidazo[1,2-a]pyrazin-3-yl)pyrimidin-4-yl)hexahydropyrrolo[1,2-a]pyrazin-6(2H)-one] | – | – | 0.1 to 1 | > 5 | –
C[C@@H]1COCCN1c1cc(-c2cnc3ccc(C(F)F)nn23)ncn1 [II-324, (R)-4-(6-(6-(Difluoromethyl)imidazo[1,2-b]pyridazin-3-yl)pyrimidin-4-yl)-3-methylmorpholine] | 0.01 to 1 | > 5 | – | – | –
C[C@@H]1C[C@H](c2cn[nH]c2)CN(c2ccnc(-c3cnc4cnc(C(F)(F)F)cn34)n2)C1 [IV-770, 3-(4-((3R,5R)-3-methyl-5-(1H-pyrazol-4-yl)piperidin-1-yl)pyrimidin-2-yl)-6-(trifluoromethyl)imidazo[1,2-a]pyrazine] | – | – | – | < 0.5 | IC50 (GCN2 kinase; compounds of Formula IV, 4 nM GCN2 kinase): 0.01 to 1 µM
CC(NS(C)(=O)=O)C1CN(c2ccnc(-c3cnc4ccc(C(F)F)nn34)c2)CCO1 (stereo not shown) [II-105, N-(1-(4-(2-(6-(Difluoromethyl)imidazo[1,2-b]pyridazin-3-yl)pyridin-4-yl)morpholin-2-yl)ethyl)methanesulfonamide] | < 0.01 | 0.5 to 5 | – | – | –
CC1(O)CC(CNS(C)(=O)=O)CN(c2cc(-c3cnc4ccc(C(F)F)nn34)ncn2)C1 (single isomer, unassigned) [II-6, N-((1-(6-(6-(Difluoromethyl)imidazo[1,2-b]pyridazin-3-yl)pyrimidin-4-yl)-5-hydroxy-5-methylpiperidin-3-yl)methyl)methanesulfonamide] | 0.01 to 1 | 0.5 to 5 | – | – | –
FC(F)(F)c1cn2c(-c3nsc(N4CCOC(c5cn[nH]c5)C4)n3)cnc2cn1 (stereo not shown) [IV-704, 2-(1H-pyrazol-4-yl)-4-(3-(6-(trifluoromethyl)imidazo[1,2-a]pyrazin-3-yl)-1,2,4-thiadiazol-5-yl)morpholine] | – | – | 0.1 to 1 | > 5 | –
CC1(O)CCCN(c2ccnc(-c3cnc4cnc(C(F)F)cn34)n2)CC1 (stereo not shown) [IV-90, 1-(2-(6-(Difluoromethyl)imidazo[1,2-a]pyrazin-3-yl)pyrimidin-4-yl)-4-methylazepan-4-ol] | – | – | 0.1 to 1 | > 5 | –
CNc1cc(-c2cnc3ccc(C(F)F)nn23)cc(N2CCC(F)(F)C(CNS(C)(=O)=O)C2)n1 (stereo not shown) [II-71, N-((1-(4-(6-(Difluoromethyl)imidazo[1,2-b]pyridazin-3-yl)-6-(methylamino)pyridin-2-yl)-4,4-difluoropiperidin-3-yl)methyl)methanesulfonamide] | < 0.01 | 0.5 to 5 | – | – | –
CC1CN(c2ccnc(-c3cnc4cnc(C(F)(F)F)cn34)n2)CC(c2cn[nH]c2)O1 (single isomer, unassigned) [IV-15, 2-Methyl-6-(1H-pyrazol-4-yl)-4-(2-(6-(trifluoromethyl)imidazo[1,2-a]pyrazin-3-yl)pyrimidin-4-yl)morpholine] | – | – | 0.01 to 0.1 | 0.5 to 5 | –
CC1(C)CN(c2cc(-c3cnc4ccc(C(F)F)nn34)ccn2)C[C@H](CNS(C)(=O)=O)O1 [II-148, (R)—N-((4-(4-(6-(Difluoromethyl)imidazo[1,2-b]pyridazin-3-yl)pyridin-2-yl)-6,6-dimethylmorpholin-2-yl)methyl)methanesulfonamide] | < 0.01 | < 0.5 | – | – | –
CS(=O)(=O)NCc1cccc(-c2ccnc(-c3cnc4cnc(C(F)F)cn34)n2)c1 [IV-146, N-(3-(2-(6-(Difluoromethyl)imidazo[1,2-a]pyrazin-3-yl)pyrimidin-4-yl)benzyl)methanesulfonamide] | – | – | 0.1 to 1 | > 5 | –
OC1CCN(c2ccnc(-c3cnc4cnc(C(F)(F)F)cn34)n2)CC1c1cn[nH]c1 (single isomer, unassigned) [IV-622, 3-(1H-Pyrazol-4-yl)-1-(2-(6-(trifluoromethyl)imidazo[1,2-a]pyrazin-3-yl)pyrimidin-4-yl)piperidin-4-ol] | – | – | < 0.01 | 0.5 to 5 | –
CC1CN(c2ccnc(-c3cnc4cnc(C(F)(F)F)cn34)n2)C(C)C(c2ccc(=O)[nH]c2)N1 (stereo not shown) [IV-677, 5-(3,6-Dimethyl-4-(2-(6-(trifluoromethyl)imidazo[1,2-a]pyrazin-3-yl)pyrimidin-4-yl)piperazin-2-yl)pyridin-2(1H)-one] | – | – | 0.01 to 0.1 | 0.5 to 5 | –
